Consider one compound from patent US11400072B2, “Methods for the treatment of nonalcoholic fatty liver disease and/or lipodystrophy” (Coherus Biosciences, Inc., priority 2015, dated 2022).

The test concerns obese patients with NASH. In words: 48 week double blind, placebo controlled, randomized, parallel group study of INT131 on hepatic histology of obese patients with NASH. The format is in vivo, human. To be noted: subjects receiving either 1.25 or 2 mg of INT131 once per day. An excerpt: A 48 week double blind, placebo controlled, randomized, parallel group study will be conducted to evaluate the effect of INT131 on hepatic histology of obese patients with NASH. Specifically, at least 225 subjects are chosen that fit the following criteria: (1) age 18 to 75 years old; (2) body mass index (BMI) greater than 25 kg/m^2 and less than 40 kg/m^2; (3) NAFLD fibrosis score greater than or equal to 1.0 and less than 4.0; (4) average daily alcohol consumption of 10 g/day or less; (5) NAFLD activity score (“NAS”) of 3 or greater; (6) histologically proven steatohepatitis on a diagnostic liver biopsy performed within 6 months of randomization, confirmed central laboratory reading of slides (steatosis >5% lobular inflammation, any amount of ballooning); (7) women who meet the following criteria: women of childbearing potential with a negative urine pregnancy test at Screening who agree to use 1 or more approved methods of birth control during the study. Approved methods of birth control are: hormonal contraception, intrauterine device, diaphragm plus spermicide, female condom plus spermicide. […]

Setting [1] is: week 0 compared to week 48, statistically significant versus placebo group.

With `O=S(=O)(Nc1cc(Cl)c(Oc2cnc3ccccc3c2)c(Cl)c1)c1ccc(Cl)cc1Cl` [INT131, 2,4-Dichloro-N-[3,5-dichloro-4-(3-quinolinyloxy)phenyl]benzenesulfonamide], the “liver function test(s)” value is recorded as “improvement” and the “most if not all other metabolic parameters outlined above” value is recorded as “improvement”. Besides, under setting [1], the “NAS (NAFLD activity score)” value is “reduction”; the ballooning grade result is reported as “reduction”; the fibrosis stage result is “reduction”; the “portal and lobular inflammation grade” value is listed as “reduction”. Besides, under setting [1], the steatosis grade entry is on record as “reduction”.
